Reference: paper PMC6716783, “Agonist-induced membrane nanodomain clustering drives GLP-1 receptor responses in pancreatic beta cells” (PLoS Biology, 2019)
Ends that are not written are not given here.

How the values were obtained:
[1] = test system: GLP-1R; details: cited from earlier work
Text: To further elucidate the mechanism by which BETP potentiates GLP-1R responses, we examined the relative contributions of GLP-1R palmitoylation, β-arrestins, and cholesterol-dependent membrane compartmentalization to its effect.

[2] = test system: SNAP-GLP-1R; test: Palmitoylation assay, SNAP-GLP-1R; format: cell-based, human
Experimental: For the detection of palmitoylated GLP-1Rs, cells were stimulated with 100 nM of the indicated agonist for 10 min and, when appropriate, pretreated with 10 μM BETP for 5 min (and throughout the agonist stimulation period) or overnight with 200 μM of the palmitoylation inhibitor 2-BP. Isolation of palmitoylated proteins was performed with the CAPTUREome S-Palmitoylated Protein Kit (Badrilla), following the manufacturer’s instructions. […] Key steps include blocking of free thiol groups with a blocking reagent, cleavage of thioester linkages to release the palmitate group, and capture of newly liberated thiols with the CAPTUREome capture resin. Briefly, cells were lysed and free thiols blocked in the manufacturer’s blocking buffer at 40 °C for 4 h with constant vortexing. Proteins were then precipitated with cold acetone for 20 min at −20 °C. Following centrifugation at 16,000g for 5 min, the pellet was extensively washed with 70% cold acetone and resuspended in the manufacturer’s binding buffer. Approximately 10% of the soluble lysate was saved as the input fraction (IF). Prewashed CAPTUREome capture resin was added to the lysates. To this mixture, either the thioester cleavage or the acyl-preservation reagents were added. Resins were washed five times with the manufacturer’s binding buffer. […]

[3] = test system: wt or C438A SNAP-GLP-1R in HEK293 cells; test: Internalization of C438A versus wt SNAP-GLP-1R with BETP (confocal, DERET); format: cell-based, human; details: 100 nM exendin-phe1, 10 μM BETP
[4] = test system: GLP-1R; details: cited from earlier work; remark: listed apart in the source
[5] = test system: cellular cholesterol in HEK293, CHO-K1, INS-1 832/3, MIN6B1 cells; test: Cholesterol depletion (filipin / Amplex Red); format: cell-based; set-up: unit not given here
Experimental: Cells were treated with or without MβCD as above. For cholesterol labeling, filipin staining was carried out with the Cell-Based Cholesterol Assay Kit (Abcam). For quantification of cholesterol levels, lipid was extracted using butanol as described. Briefly, the washed cell pellet was left in 250 μl butanol overnight at 4 °C, and the organic layer was aspirated, placed in a microplate, and allowed to evaporate to dryness. The lipid film was redissolved in 1% Triton X-100, and cholesterol concentration was determined using the Amplex Red Cholesterol Assay Kit (Thermo Fisher), followed by normalization to protein content of the cell pellet determined by BCA assay.

[6] = test system: human GLP-1R (SNAP-GLP-1R) in MIN6B1 cells; test: SNAP-GLP-1R partitioning into detergent-resistant (raft) membrane fractions; format: cell-based; details: 2 min stimulation, versus vehicle
[7] = test system: SNAP-GIPR in CHO-K1 cells; details: 100 nM GIP, 10 min
[8] = test system: SNAP-GIPR in HEK293 cells; details: GIP 100 nM
Text: These concentrations were selected because they provided optimum signal intensity at both measurement wavelengths. […] TR-FRET was sequentially measured after agonist addition.

[9] = test system: SNAP-GLP-1R in HEK293 cells; test: NR12S TR-FRET (liquid-ordered localization); format: cell-based, human; details: for concentration response with MβCD (sheet S2H): agonist not named
[10] = test system: SNAP-GLP-1R; test: SNAP-GLP-1R internalization by confocal microscopy; format: cell-based, human
[11] = test system: SNAP-GIPR in INS-1 832/3 cells; test: SNAP-GIPR internalization by confocal microscopy; format: cell-based; details: MβCD 10 mM 1 h; 100 nM GIP 1 h
Experimental: For confocal microscopy, cells were labeled at 37 °C with 1 μM of the indicated SNAP-tag fluorescent probe (New England Biolabs) in full media, stimulated with agonists for the indicated times, fixed in 4% paraformaldehyde, mounted in Prolong Diamond antifade reagent with 4,6-diamidino-2-phenylindole (Life Technologies), imaged with a Zeiss LSM-780 inverted confocal laser-scanning microscope in a ×63/1.4 numerical aperture oil-immersion objective from the Facility for Imaging by Light Microscopy (FILM) at Imperial College London, and analyzed in Fiji. […] Images were acquired with an ORCA-Flash 4.0 camera (Hamamatsu) and Metamorph software (Molecular Devices), and colocalization was measured by Manders’ coefficient analyzed using Coloc 2 plugin in Fiji.

[12] = target: T1, endogenous GLP-1R in INS-1 832/3 cells (Rattus norvegicus, UniProt P32301); test: HTRF cAMP, wt INS-1 832/3 cells; format: cell-based; details: MβCD; wild-type INS-1 832/3 cells
T1 construct: endogenous in cells
T1 sequence (P32301 22-463): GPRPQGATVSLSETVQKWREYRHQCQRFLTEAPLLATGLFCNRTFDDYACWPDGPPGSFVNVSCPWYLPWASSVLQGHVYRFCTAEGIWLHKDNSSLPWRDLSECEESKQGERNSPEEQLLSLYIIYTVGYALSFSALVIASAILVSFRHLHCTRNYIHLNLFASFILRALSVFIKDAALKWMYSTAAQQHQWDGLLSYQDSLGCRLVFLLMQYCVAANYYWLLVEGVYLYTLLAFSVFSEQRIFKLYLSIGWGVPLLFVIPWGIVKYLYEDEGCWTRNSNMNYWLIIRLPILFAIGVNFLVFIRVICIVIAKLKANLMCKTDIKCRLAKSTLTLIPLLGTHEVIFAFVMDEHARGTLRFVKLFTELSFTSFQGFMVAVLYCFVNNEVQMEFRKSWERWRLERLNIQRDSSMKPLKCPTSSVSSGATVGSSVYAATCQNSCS
Experimental: Cells were treated in white microplates with agonist, with or without isobutylmethylxanthine (IBMX) as indicated to inhibit phosphodiesterases, for the indicated period of time before total cellular cAMP determination by HTRF (Cisbio cAMP Dynamic 2).

[13] = test system: SNAP-GLP-1R in HEK293 cells; test: Surface SNAP-GLP-1R labeling by Lumi4-Tb; format: cell-based, human; details: MβCD treatment

CC[S+]([O-])c1nc(-c2cccc(OCc3ccccc3)c2)cc(C(F)(F)F)n1 (centres unmarked) [BETP, 4-(3-benzyloxyphenyl)-2-ethylsulfinyl-6-(trifluoromethyl)pyrimidine]
covalent binding site (in words) [1]: covalently bind two intracellular GLP-1R cysteine residues (347 and 438 | effect on exendin-4-induced palmitoylation (in words) ([2]; CHO SNAP-GLP-1R cells, BETP 10 μM, 100 nM exendin-4 10 min): significant reduction in exendin-4-induced palmitoylation | effect of BETP on internalization of C438A (in words) [3]: comparable to that of wild-type receptors | potentiation of weak agonist GLP-1(9–36)NH2 (in words) [4]: markedly augment responses | potentiation of weak agonist oxyntomodulin (in words) [4]: markedly augment responses

CC(C)CCC[C@@H](C)[C@H]1CC[C@H]2[C@@H]3CC=C4C[C@@H](O)CC[C@]4(C)[C@H]3CC[C@]12C [Chol]
cellular cholesterol ([5]; CHO-K1, replicate 1): 666.594 | cellular cholesterol ([5]; CHO-K1, replicate 2): 793.376 | cellular cholesterol ([5]; CHO-K1, replicate 3): 793.376 | cellular cholesterol ([5]; HEK293, replicate 1): 549.236 | cellular cholesterol ([5]; HEK293, replicate 2): 621.505 | cellular cholesterol ([5]; HEK293, replicate 3): 643.5 | cellular cholesterol ([5]; INS-1 832/3, replicate 1): 653.543 | cellular cholesterol ([5]; INS-1 832/3, replicate 2): 706.063 | cellular cholesterol ([5]; INS-1 832/3, replicate 3): 690.314 | cellular cholesterol ([5]; MIN6B1, replicate 1): 989.644 | cellular cholesterol ([5]; MIN6B1, replicate 2): 1174.28 | cellular cholesterol ([5]; MIN6B1, replicate 3): 1186.59

CCCCCCCCCCCCCCCC(=O)O [palmitate]
GLP-1R palmitoylation (in words) ([2]; MIN6B1 SNAP-GLP-1R cells, excess palmitate (200 μM palmitate/BSA overnight)): greatly enhanced

GLP-1(7–36)NH2: endogenous GLP-1R agonist (HAEGTFTSDVSSYLEGQAAKEFIAWLVKGR-NH2; UniProt P01275 98-127, looked up)
SNAP-GLP-1R raft recruitment (in words) [6]: Increased enrichment of poly-glycosylated GLP-1Rs in membrane raft fractions

glucose-dependent insulinotropic polypeptide [GIP]
GIPR palmitoylation (in words) [7]: not further increased by GIP stimulation | SNAP-GIPR clustering (in words) [8]: no detectable increase upon GIP addition

methyl-β-cyclodextrin [MβCD]
effect on NR12S-linked TR-FRET (in words) ([9]; MβCD, S2H): effective in reducing both basal and exendin-4-induced NR12S-linked increases in TR-FRET | concentration response with MβCD (sheet S2H) ([9]; log conc -6, replicate 1): 33.0955 | concentration response with MβCD (sheet S2H) ([9]; log conc -6, replicate 2): 36.4407 | concentration response with MβCD (sheet S2H) ([9]; log conc -6, replicate 3): 38.4994 | concentration response with MβCD (sheet S2H) ([9]; log conc -6.47712, replicate 1): 34.0966 | concentration response with MβCD (sheet S2H) ([9]; log conc -6.47712, replicate 2): 36.1901 | concentration response with MβCD (sheet S2H) ([9]; log conc -6.47712, replicate 3): 32.7645 | concentration response with MβCD (sheet S2H) ([9]; log conc -6.95424, replicate 2): 32.2917 | concentration response with MβCD (sheet S2H) ([9]; log conc -6.95424, replicate 3): 33.0671 | concentration response with MβCD (sheet S2H) ([9]; log conc -7.43136, replicate 1): 24.1893 | concentration response with MβCD (sheet S2H) ([9]; log conc -7.43136, replicate 2): 31.793 | concentration response with MβCD (sheet S2H) ([9]; log conc -7.90849, replicate 2): 35.2618 | concentration response with MβCD (sheet S2H) ([9]; log conc -7.90849, replicate 3): 26.4888 | concentration response with MβCD (sheet S2H) ([9]; log conc -8.38561, replicate 3): 33.8275 | concentration response with MβCD (sheet S2H) ([9]; log conc -8.86273, replicate 1): 30.8645 | concentration response with MβCD (sheet S2H) ([9]; log conc -8.86273, replicate 2): 27.0998 | concentration response with MβCD (sheet S2H) ([9]; log conc -8.86273, replicate 3): 36.96 | concentration response with MβCD (sheet S2H) ([9]; log conc -10, replicate 1): 23.1185 | concentration response with MβCD (sheet S2H) ([9]; log conc -10, replicate 2): 30.0361 | concentration response with MβCD (sheet S2H) ([9]; log conc -10, replicate 3): 37.2206 | effect on BETP-induced internalization of exendin-phe1-stimulated SNAP-GLP-1R (in words) ([10]; MIN6B1, MβCD 10 mM 1 h preincubation): inhibited this process to the same extent as for exendin-4 | effect on exendin-4-induced internalization (in words) ([10]; MβCD 10 mM 1 h, 100 nM exendin-4, 15 min, beta and nonbeta cells): marked inhibition of exendin-4-induced SNAP-GLP-1R internalization | effect on SNAP-GLP-1R endocytosis (in words) ([10]; MβCD, wt and β-arrestin-less HEK293, 100 nM exendin-4, 15 min): substantially inhibited by MβCD irrespective of β-arrestin status | effect on GIPR endocytosis (in words) [11]: virtually abolished after MβCD treatment | effect on cAMP production (in words) [12]: reduced by MβCD | effect on surface SNAP-GLP-1R expression (in words) [13]: did not alter receptor surface SNAP-GLP-1R expression | cellular cholesterol ([5]; CHO-K1, replicate 1): 39.7439 | cellular cholesterol ([5]; CHO-K1, replicate 2): 158.5 | cellular cholesterol ([5]; CHO-K1, replicate 3): 99.7412 | cellular cholesterol ([5]; HEK293, replicate 1): 170.419 | cellular cholesterol ([5]; HEK293, replicate 2): 186.214 | cellular cholesterol ([5]; HEK293, replicate 3): 179.148 | cellular cholesterol ([5]; INS-1 832/3, replicate 1): 159.866 | cellular cholesterol ([5]; INS-1 832/3, replicate 2): 177.786 | cellular cholesterol ([5]; INS-1 832/3, replicate 3): 167.411 | cellular cholesterol ([5]; MIN6B1, replicate 1): 202.183 | cellular cholesterol ([5]; MIN6B1, replicate 2): 224.442 | cellular cholesterol ([5]; MIN6B1, replicate 3): 240.208
